Measured values as given in US20130071936A1, “FRET-BASED ZINC(II) ION INDICATOR” (The Florida State University Research Foundation, Inc., priority 2011, published 2013).
“And” between values parts separate entries of the source, which are not always exact repeats. Equal entries are not always repeated. Marks after values point to notes of the source that are not given here.

Experiments:
[1] = Absorption and fluorescence titration of the indicator with ZnCl2 in CH3CN; assay type: binding
Description: FIG. 3 is a graph depicting fluorescence intensity increase (F/F0 at 630 nm) of zinc(II) ion indicator (4) (3.0 μM), with increasing [ZnCl2]. The solid line is the fitting curve of F/F0 vs. [Zn^2+] based on a 1:1 binding isotherm equation. See Zhu, L.; Zhong, Z.; Anslyn, E. V. J. Am. Chem. Soc. 2005, 127, 4260-4269.
FIGS. 4A and 4B are graphs depicting (4A) Absorption spectra for the titration of zinc(II) ion indicator (4) (3.0 μM) with ZnCl2 (0-18 μM) in CH3CN, and (4B) Fluorescence spectral change of zinc(II) ion indicator (4) (3.0 μM) with different concentrations of ZnCl2 (0-18 μM) in CH3CN (λex 400 nm).
FIG. 5 is a graph depicting fluorescence spectral change of zinc(II) ion indicator (4) (2.5 μM) with different concentrations of ZnCl2 (0-16 μM) in CH3CN (λex=600 nm).
The syntheses of the separate FRET donor and acceptor systems (1-3) and indicators for zinc(II) (4, 5) are described in the examples. Absorption spectrum of zinc(II) ion indicator compound (4) in CH3CN consists of two bands over 300 nm (FIG. 4A). The band centered at 346 nm corresponds to the absorption of the bipy-containing FRET donor moiety, which we term the D band. The band centered at 600 nm corresponds to the NDI moiety which is termed the A band. Upon addition of increasing amount of ZnCl2, as a result of zinc(II) coordination at the bipy moiety, the charge-transfer D band undergoes a bathochromic shift from 346 nm to 370 nm. The A band, meanwhile, experiences a slight hypochromic shift.
The fluorescence titration profile of zinc(II) ion indicator compound (4) with ZnCl2 upon excitation at 400 nm is shown in FIG. 4B. […] This signal may have arisen from the direct excitation of the NDI component. Upon addition of increasing amount of ZnCl2 from 0-18 μM, the emission at 630 nm intensifies, and reaches saturation with 12-fold enhancement in integrated intensity (See Table 1 for spectroscopic data). […] These observations are consistent with the involvement of a zinc(II)-modulated intramolecular excitation energy transfer process. Furthermore, the differed sensitivity to excitation wavelength of zinc(II) ion indicator (4) offers an opportunity to correlate [Zn^2+] and fluorescence change ratiometrically. […]
Reagents and solvents were purchased from various commercial sources and used without further purification unless otherwise stated. […] Silica and alumina gel was flame-dried under vacuum to remove absorbed moisture before use. ^1H NMR spectra were recorded at 300 MHz on a Varian Mercury spectrometer. ^13C NMR spectra were recorded at 125 MHz, on a Bruker Avance spectrometer. […] Spectrophotometric and fluorometric titrations were conducted on a Varian Cary 100 Bio UV-Visible Spectrophotometer and a Varian Cary Eclipse Fluorescence Spectrophotometer, respectively, with a 1-cm standard quartz cell. […]

[2] = Spectroscopic data (absorption, emission, fluorescence quantum yield) in CH3CN; assay type: physicochemical
Description: Reagents and solvents were purchased from various commercial sources and used without further purification unless otherwise stated. CH3CN (OmniSolv, EMD) were directly used in titration experiments without purification. All reactions were carried out in oven- or flame-dried glassware. Analytical thin-layer chromatography (TLC) was performed using pre-coated TLC plates with silica gel 60 F254 (EMD) or with aluminum oxide 60 F254 neutral (EMD). Flash column chromatography was performed using 40-63 μm (230-400 mesh ASTM) silica gel (EMD) or alumina (80-200 mesh, pH 9-10, EMD) as the stationary phases. Silica and alumina gel was flame-dried under vacuum to remove absorbed moisture before use. ^1H NMR spectra were recorded at 300 MHz on a Varian Mercury spectrometer. ^13C NMR spectra were recorded at 125 MHz, on a Bruker Avance spectrometer. All chemical shifts were reported in δ units relative to tetramethylsilane. High resolution mass spectra were obtained at the Mass Spectrometry Laboratory at Florida State University. ESI spectra were obtained on a JEOL AccuTOF spectrometer. Spectrophotometric and fluorometric titrations were conducted on a Varian Cary 100 Bio UV-Visible Spectrophotometer and a Varian Cary Eclipse Fluorescence Spectrophotometer, respectively, with a 1-cm standard quartz cell. The fluorescence quantum yield was determined by comparison of the integrated area of corrected emission spectrum with reference of N,N′-di-n-octyl-2,6-di-n-octylamino-1,4,5,8-naphthalenetetracarboxylic acid diimide (φf=0.53 in CH2Cl2) as the reference by the literature method. See Thalacker, C.; Röger, C.; Würthner, F. J. Org.

SMILES: COCCCNc1cc2c3c(c(NCCOc4ccc(/C=C/c5ccc(-c6ccc(COCCOCCOC)cn6)nc5)cc4)cc4c3c1C(=O)N(CCCOC)C4=O)C(=O)N(CCCOC)C2=O [Compound (4)]
- enhancement in integrated intensity of emission at 630 nm at saturation ([1]; CH3CN, ZnCl2 0-18 μM, λex 400 nm): 12 fold
- D band absorption after bathochromic shift upon addition of ZnCl2 ([1]; CH3CN, increasing ZnCl2): 370 nm
- fluorescence intensity on variation of zinc(II) concentration when NDI is directly excited ([1]; CH3CN, λex 600 nm): not affected much
- Kd ([1]; indicator 3.0 μM, F/F0 at 630 nm vs [ZnCl2], fit to 1:1 binding isotherm, read-out: Dissociation constant Kd): 9.1 µM
- λabs (A band) ([2]; complexes: Zn(ClO4)2 10 equiv.): 600 nm and 600 (A) nm
- λabs (D band) ([2]; complexes: Zn(ClO4)2 10 equiv.): 346 nm and 346 (D) nm
- λem ([2]; complexes: Zn(ClO4)2 10 equiv.): 633 nm
- ∈/10^3 (A band) ([2]; complexes: Zn(ClO4)2 10 equiv.): 22 10^3 M^-1 cm^-1
- ∈/10^3 (D band) ([2]; complexes: Zn(ClO4)2 10 equiv.): 76 10^3 M^-1 cm^-1
- φf ([2]; λex = 565 nm): 0.41^c
